The text below walks through data of PubChem BioAssay (NCI).

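Results reflect a 48-hour exposure of cells in 96-well plates to compound at five concentrations. The concentration for 50% growth inhibition is given as GI50. The concentration for full growth arrest is given as TGI.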

Among the test systems are NCI-H226 lung; SN12C renal; UACC-62 melanoma; UO-31 renal; UACC-257 melanoma; SW-620 colon; CAKI-1 renal; SK-MEL-2 melanoma; SF-268 CNS.
Holding throughout (assay): NCI-60 cell line screen, 48 h

For `CCOC(=O)Cc1nc2ccc3c(c2[nH]c1=O)C(=O)c1ccccc1C3=O`, the TGI in the assay on NCI-H226 lung, in the assay with SN12C renal, with UACC-62 melanoma, in the assay with UO-31 renal, in the assay with UACC-257 melanoma and in the assay with SW-620 colon was more than 100 µM each time. The TGI in the assay on CAKI-1 renal, in the assay with SK-MEL-2 melanoma and in the assay on SF-268 CNS was more than 100 µM throughout.

As to `COC(=O)C1=CO[C@@H](OC2CC(CO)C(O)C(O)C2O)[C@@H]2[C@@H](C)[C@@H](OC(=O)/C=C/c3ccccc3)[C@@H](O)[C@H]12` (some centres not stated) (tested in a mixture with another compound), the TGI in the assay on NCI-H226 lung, in the assay with SN12C renal, in the assay on UACC-62 melanoma, in the assay with UO-31 renal, in the assay on UACC-257 melanoma and in the assay with SW-620 colon was more than 100 µM each time. The TGI in the assay with CAKI-1 renal and in the assay on SF-268 CNS was more than 100 µM throughout.

Consider `O=C(/C=C/c1ccccc1)Oc1cccc2cccnc12`, for which the TGI with NCI-H226 lung was more than 66.7 µM; in the assay with SN12C renal, more than 58.6 µM; with UACC-62 melanoma it was 27.1 µM; with UO-31 renal, more than 73 µM; with UACC-257 melanoma, 18.2 µM; in the assay on SW-620 colon it was 21.9 µM. Besides, the TGI with CAKI-1 renal stood at 83.2 µM; in the assay on SF-268 CNS it was 13.7 µM.

Turning to `C[N+](C)(C)CCC(=O)CC[N+](C)(C)C`, the TGI is 41.4 µM in the assay on UACC-62 melanoma; more than 100 µM with UO-31 renal; 35.9 µM in the assay with UACC-257 melanoma; 35.4 µM in the assay with SW-620 colon; 29.2 µM in the assay with CAKI-1 renal; 66.1 µM in the assay with SK-MEL-2 melanoma. For the same compound, the TGI with SF-268 CNS was found to be 42.9 µM.

As for `CCc1c(C#N)c(=O)[nH]c(=O)n1CCN1CCN(C(=O)NCCCCCCNC(=O)N2CCN(CCn3c(CC)c(C#N)c(=O)[nH]c3=O)CC2)CC1`, the TGI in the assay on SN12C renal, with UACC-62 melanoma, with UACC-257 melanoma, in the assay on SW-620 colon and with CAKI-1 renal was more than 100 µM each time.

Take `CC[O-].CC[O-].O=C([CH-]C(=O)c1ccccc1)CCCCCCCCC(=O)[CH-]C(=O)c1ccccc1.[Ti+4]`: the GI50 with SN12C renal, in the assay on UACC-62 melanoma, with UACC-257 melanoma, in the assay on SW-620 colon, with CAKI-1 renal and with SK-MEL-2 melanoma was more than 100 µM in each case. For the same compound, in the assay with SF-268 CNS, the GI50 was more than 100 µM. Also, the TGI in the assay with SN12C renal, with UACC-62 melanoma, with UACC-257 melanoma, in the assay on SW-620 colon, with CAKI-1 renal and with SK-MEL-2 melanoma was more than 100 µM each time. The same compound had a TGI in the assay on SF-268 CNS of more than 100 µM.

With `CC1=C(C(=O)Nc2ccccc2C)C(c2ccc(Cl)cc2)C(C(=O)Nc2ccccc2C)=C(C)N1`, the TGI in the assay with NCI-H226 lung, in the assay with SN12C renal, in the assay on UACC-62 melanoma, in the assay on UO-31 renal, in the assay on UACC-257 melanoma and in the assay with SW-620 colon was more than 100 µM in each case. The TGI in the assay on CAKI-1 renal, in the assay with SK-MEL-2 melanoma and in the assay on SF-268 CNS was more than 100 µM throughout.

As to `C/C=C/C(C#N)O[Si](C)(C)C` (configuration not stated), the TGI in the assay with NCI-H226 lung, with SN12C renal, in the assay on UACC-62 melanoma, in the assay with UO-31 renal, in the assay on UACC-257 melanoma and with SW-620 colon was more than 100 µM in each case. The TGI with CAKI-1 renal, in the assay on SK-MEL-2 melanoma and in the assay on SF-268 CNS was more than 100 µM throughout.

Take `COC(=O)c1sc(C(=O)OC)c2c1CS(=O)C2`: the TGI in the assay with NCI-H226 lung, in the assay on UACC-62 melanoma, with UO-31 renal, in the assay on UACC-257 melanoma, in the assay on SW-620 colon and with CAKI-1 renal was more than 100 µM each time. Besides, the TGI in the assay on SK-MEL-2 melanoma and in the assay with SF-268 CNS was more than 100 µM each time.

Consider `C=C(c1ccccc1)C1(O)CCCCC1N` (configuration not stated), for which the TGI in the assay on NCI-H226 lung, with SN12C renal, in the assay with UACC-62 melanoma, with UO-31 renal, with UACC-257 melanoma and with SW-620 colon was more than 100 µM each time. Besides, the TGI in the assay on CAKI-1 renal, in the assay with SK-MEL-2 melanoma and in the assay with SF-268 CNS was more than 100 µM throughout.

Turning to `CN1CCN(C(=S)N(C)C(=O)c2ccco2)CC1`, the TGI in the assay on NCI-H226 lung, in the assay with SN12C renal, with UACC-62 melanoma, in the assay on UO-31 renal, in the assay with UACC-257 melanoma and in the assay on SW-620 colon was more than 100 µM throughout. For the same compound, the TGI in the assay with SK-MEL-2 melanoma was more than 100 µM.

In the case of `COC1=NCc2ccccc2-c2ccccc21`, the TGI in the assay with NCI-H226 lung, with SN12C renal, in the assay with UACC-62 melanoma, in the assay with UO-31 renal, with UACC-257 melanoma and in the assay on SK-MEL-2 melanoma was more than 100 µM throughout. Also, in the assay on SF-268 CNS, the TGI was more than 100 µM.

As for `COC(=O)/C(=N\NC(C)(C)C)C(C(=O)OC)C(=O)C(=O)Nc1cc(Cl)ccc1Cl` (configuration not stated), the TGI with NCI-H226 lung, in the assay on SN12C renal, with UACC-62 melanoma, with UO-31 renal, with UACC-257 melanoma and with SW-620 colon was more than 100 µM each time. Besides, the TGI with CAKI-1 renal, in the assay on SK-MEL-2 melanoma and in the assay with SF-268 CNS was more than 100 µM each time.

For `O=C(COc1ccccc1Cl)N1N=C(c2ccc(Cl)cc2)CC1(O)c1ccccc1` (configuration not stated), the TGI in the assay with NCI-H226 lung, in the assay with SN12C renal, in the assay with UACC-62 melanoma, in the assay with UO-31 renal, in the assay on UACC-257 melanoma and in the assay with SW-620 colon was more than 100 µM each time. In addition, the TGI with CAKI-1 renal, in the assay on SK-MEL-2 melanoma and with SF-268 CNS was more than 100 µM throughout.

For the compound `O=C1Nc2ccccc2C1(O)C/C(=N/O)c1ccc2ccccc2c1` (configuration not stated), the TGI in the assay with NCI-H226 lung, with SN12C renal, in the assay on UO-31 renal, with UACC-257 melanoma, with SW-620 colon and in the assay on SK-MEL-2 melanoma was more than 100 µM each time. Further, the TGI in the assay with SF-268 CNS was more than 100 µM.

In the case of `CCOC(=O)NC(=O)c1cn(CCN2CCN(C(=O)NCCCCCCNC(=O)N3CCN(CCn4cc(C(=O)NC(=O)OCC)c(=O)[nH]c4=O)CC3)CC2)c(=O)[nH]c1=O`, the TGI with SN12C renal, with UACC-62 melanoma, with UO-31 renal, in the assay with UACC-257 melanoma, with SW-620 colon and in the assay with SK-MEL-2 melanoma was more than 100 µM each time. The TGI in the assay on SF-268 CNS is more than 100 µM.
